Assay results reported in ChEMBL document CHEMBL1201862, “PubChem BioAssay data set” (2004).
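Compound exposure: 48 hours, 5 concentrations, 96-well plates. At the GI50, growth is halved.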 Active and inactive are the calls of the source. No stated cut-off is given here; in the data, active = GI50 up to about 1.1 µM and inactive = higher.

How the values were obtained:
Experiment in all cases: NCI-60 cell line screen, 48 h
[1] = tested on: U-251
[2] = tested on: SNB-75
[3] = tested on: NCI-H23
[4] = tested on: COLO 205
[5] = tested on: SN12C
[6] = tested on: SR
[7] = tested on: HT-29
[8] = tested on: HCC 2998
[9] = tested on: SK-MEL-2
[10] = tested on: ACHN
[11] = tested on: HOP-62
[12] = tested on: OVCAR-5
[13] = tested on: MOLT-4
[14] = tested on: OVCAR-4
[15] = tested on: SK-MEL-5
[16] = tested on: LOX IMVI
[17] = tested on: KM12
[18] = tested on: EKVX
[19] = tested on: SF-539
[20] = tested on: UACC-62

| SMILES | GI50 [1] | GI50 [2] | GI50 [3] | GI50 [4] | GI50 [5] | GI50 [6] | GI50 [7] | GI50 [8] | GI50 [9] | GI50 [10] | GI50 [11] | GI50 [12] | GI50 [13] | GI50 [14] | GI50 [15] | GI50 [16] | GI50 [17] | GI50 [18] | GI50 [19] | GI50 [20] |
| --- | --- | --- | --- | --- | --- | --- | --- | --- | --- | --- | --- | --- | --- | --- | --- | --- | --- | --- | --- | --- |
| CCCCSCCC(N)P(=O)(O)O (stereo unspecified) | > 100 µM (inactive) | > 100 µM (inactive) | > 100 µM (inactive) | > 100 µM (inactive) | > 100 µM (inactive) | > 100 µM (inactive) | > 100 µM (inactive) | > 100 µM (inactive) | > 100 µM (inactive) | > 100 µM (inactive) | > 100 µM (inactive) | > 100 µM (inactive) | > 100 µM (inactive) | > 100 µM (inactive) | > 100 µM (inactive) | > 100 µM (inactive) | – | – | – | – |
| COc1cccc(CCn2c(N)c(-c3cc(Cl)cc(Cl)c3)c3ccc([N+](=O)[O-])cc3c2=O)c1 | 3.63 µM (inactive) | 4.39 µM (inactive) | 2.35 µM (inactive) | 2.03 µM (inactive) | 5 µM (inactive) | 0.897 µM (active) | 5.52 µM (inactive) | 3.51 µM (inactive) | 3.9 µM (inactive) | 3.26 µM (inactive) | 5.21 µM (inactive) | 18.1 µM (inactive) | 1.88 µM (inactive) | 7.55 µM (inactive) | 2.07 µM (inactive) | 3.61 µM (inactive) | 3.47 µM (inactive) | 4.69 µM (inactive) | 77.3 µM (inactive) | 3.33 µM (inactive) |
| c1ccc([P+](Cc2csnn2)(c2ccccc2)c2ccccc2)cc1 | > 100 µM (inactive) | > 100 µM (inactive) | > 100 µM (inactive) | > 100 µM (inactive) | > 100 µM (inactive) | > 100 µM (inactive) | > 100 µM (inactive) | > 100 µM (inactive) | > 100 µM (inactive) | > 100 µM (inactive) | > 100 µM (inactive) | > 100 µM (inactive) | > 100 µM (inactive) | > 100 µM (inactive) | > 100 µM (inactive) | > 100 µM (inactive) | > 100 µM (inactive) | > 100 µM (inactive) | > 100 µM (inactive) | 57.8 µM (inactive) |
| CC(=O)Oc1ccccc1C(=O)C1c2cccc(O)c2C(=O)c2c(O)cccc21 | 0.494 µM (active) | 0.695 µM (active) | 1.09 µM (active) | 0.705 µM (active) | 2.3 µM (inactive) | 0.419 µM (active) | 2.59 µM (inactive) | 0.581 µM (active) | 1.19 µM (inactive) | 0.771 µM (active) | 1.44 µM (inactive) | 2.58 µM (inactive) | 1.46 µM (inactive) | 0.995 µM (active) | 1.05 µM (active) | 1.62 µM (inactive) | 0.421 µM (active) | 2.18 µM (inactive) | 0.46 µM (active) | 0.794 µM (active) |
| CCc1n[nH]c(=O)n1CC | > 100 µM (inactive) | – | > 100 µM (inactive) | > 100 µM (inactive) | > 100 µM (inactive) | > 100 µM (inactive) | > 100 µM (inactive) | > 100 µM (inactive) | > 100 µM (inactive) | > 100 µM (inactive) | > 100 µM (inactive) | > 100 µM (inactive) | > 100 µM (inactive) | > 100 µM (inactive) | > 100 µM (inactive) | > 100 µM (inactive) | > 100 µM (inactive) | > 100 µM (inactive) | > 100 µM (inactive) | > 100 µM (inactive) |
| COC(=O)C1=C(C)C(=O)[C@H]2C(C(=O)OC)CCCC[C@@H]12 (stereo partly specified) | > 100 µM (inactive) | > 100 µM (inactive) | > 100 µM (inactive) | > 100 µM (inactive) | > 100 µM (inactive) | 49.1 µM (inactive) | > 100 µM (inactive) | > 100 µM (inactive) | > 100 µM (inactive) | > 100 µM (inactive) | > 100 µM (inactive) | > 100 µM (inactive) | 54.6 µM (inactive) | > 100 µM (inactive) | 72.9 µM (inactive) | – | > 100 µM (inactive) | > 100 µM (inactive) | > 100 µM (inactive) | > 100 µM (inactive) |
| COc1ccccc1-c1cc(O)c2cc(C)cnc2n1 | – | – | 40 µM (inactive) | 14.8 µM (inactive) | 66.4 µM (inactive) | > 100 µM (inactive) | 23.1 µM (inactive) | 62.1 µM (inactive) | 25.2 µM (inactive) | 68.7 µM (inactive) | 42.9 µM (inactive) | 80.5 µM (inactive) | 31.5 µM (inactive) | > 100 µM (inactive) | – | 46 µM (inactive) | 5.5 µM (inactive) | 52.1 µM (inactive) | 38.5 µM (inactive) | 31.8 µM (inactive) |
